Results from EP0542549A1, “Use of cosmetic composition” (UNILEVER PLC, priority 1991, dated 1993).

Tested on: pig skin stratum corneum
Assay: In vitro measurement of stratum corneum extensibility (linear extensometer)
Settings: 44% relative humidity; for Extensibility ratio: ratio of force/extension slopes before and after treatment, 2% extension at 20mm/min, application 4µl/cm² (25ng), mean ± standard deviation, ratio >1 = increased extensibility
From the text: The benefits of the composition following topical application to skin can be quantified by in vitro measurements employing pig skin and an extensometer, in accordance with the following procedure.
Pig skin was selected for this evaluation and this was first cleaned with an aqueous ethanol-chlorohexidine solution (15 : 75 : 10:, Hibitane; ICI Pharmaceuticals). Hairs were removed by clipping followed by depilation with commercially-available thioglycolate cream (Immac : Whitehall Laboratories) and 0.4mm thick slices of skin were removed using a Davies electric skin dermatome. Stratum corneum was isolated by incubating strips of skin, dermis side down, into a solution of trypsin (0.25g% Flow Laboratories) and phosphate-buffered saline (PBS) comprising 137mM NaCl; 2.68mM KCl; 8.1mM NaHPO₄; 1.47mM KH₂PO₄ at pH 7.4 for 2-4h at 37°C. The dermis was separated from the epidermis using forceps and the latter was incubated in fresh trypsin-PBS solution overnight at 4°C. The enzyme solution was changed several times on the following day before the stratum corneum was washed with sonication (Lucas Dawe Ultrasonics; bath sonicleaner) and three changes of PBS to remove trypsin and residual cells. The corneum was then washed with distilled water containing 0.02% sodium azide (to inhibit bacterial growth) before floating onto fluorocarbon filter (Spectra-mesh; 149µ mesh). After drying at ambient temperature and humidity the sheets of corneum were cut into rectangular strips measuring 1 x 2.5cm. The pieces of corneum were mounted at each end with plastic tape (Flow tape; Flow Laboratories) and a 6mm hole was punched into the centre of each tab. During this whole procedure the orientation of the stratum corneum was maintained to ensure samples were treated on their external surfaces only in subsequent experiments. Samples were stored in petri-dishes at ambient humidity and temperature until required. […]
The extensibility of pig skin stratum corneum was measured following treatment with ω-(O-linoleoyl)ceramide having the structure (12), as herein defined. […]

Compound | Extensibility ratio | extensibility ratio compared with hydrolysed ceramide structure (12) or linoleate (students t test, significance at the 5% level, 4µl/cm² (25ng))
CCCCC/C=C\C/C=C\CCCCCCCC(=O)OCCCCCCCCCCCCCCCCCCCCCC(=O)NC(CO)C(O)C=CCCCCCCCCCCCCC (stereo not drawn) [Ceramide structure (12), ω-(O-linoleoyl)ceramide] | 2.11 ± 0.45 | significantly greater
CCCCC/C=C\C/C=C\CCCCCCCC(=O)O [Linoleate, reference compound] | 1.29 ± 0.16 | –
